{"source": "paper PMC5702336", "about": "“Critical Role of Hepatic Cyp450s in the Testis-Specific Toxicity of (5R)-5-Hydroxytriptolide in C57BL/6 Mice” (Frontiers in Pharmacology, 2017)", "type_in_all_cases": "in vivo, mouse", "key": {"WT and KO mice": {"tested_on": "WT and KO mice", "experiment": "15-day oral toxicological study in WT and hepatic Cpr KO mice (organ weights, H&E, TUNEL, serum chemistry)", "excerpt": "Animal use protocols were approved by the Institutional Animal Care and Use Committee of the Shanghai Institute of Materia Medica (Shanghai, China), IACUC No. 2016-10-RJ-136. The Cpr knockout (KO) mice were a gift from Professor Xinxin Ding (Wadsworth Center, Albany, NY, USA). Procedures for animal breeding and genotyping were reported previously (Wu et al., [2005]). Eight to twelve weeks old male KO mice and their WT littermates on a mixed C57BL/6 and 129/Sv genetic background were used in this study. All animals were provided with a certified standard diet and tap water ad libitum during experiments. All animals were maintained under controlled temperature with a 12 h:12 h light/dark cycle. All efforts were made to minimize animal discomfort and illness, and mice were anesthetized with pentobarbital sodium (150 mg/kg, i.p.) before sample collection. No animals died during the experiment.\n(§1) For toxicity experiments, mice (n = 3/group) were treated with LLDT-8 (0.5 or 1.0 mg/kg) consecutively administered by gavage for 15 days. Controls received saline. Mice were killed on the 15th-day post-administration and blood, liver, kidney, spleen, testes, and epididymis were collected. About 500 μL blood samples were collected from the heart. The main lobe of the liver, kidney, spleen, and epididymis was fixed in 10% neutral buffered formalin for histological examination, and the left testicle was fixed in modified Davidson's buffer (30% of a 37–40% solution of formaldehyde, 15% ethanol, 5% glacial acetic acid, and 50% distilled H2O) for 16 h followed by 10% neutral buffered formalin for 24 h (Latendresse et al., [2002]). Tissue sections were stained with hematoxylin and eosin (H&E). Remaining tissues were stored at −80°C for RNA and protein extraction.\nSera were assayed for Urea, creatine (CRE), alanine aminotransferase (ALT), and aspartate transaminase (AST) using an automatic HITACHI Clinical Analyzer Model 7080 (Hitachi High-Technologies Corporation, Tokyo, Japan). The intercoefficients of variability in this assay were1.1% (ALT), 0.9% (AST), 1.2% (Urea) and 1.4% (CRE). The intracoefficients of variability in this assay were 2.0% (ALT), 0.9% (AST), 1.2% (Urea) and 5.1% (CRE).\nTUNEL assays were performed according to the manufacturer's protocol (In Situ Cell Death Kit, Roche Diagnostics, Indianapolis, IN). In brief, the paraffin-embedded testis tissue samples were deparaffinized three times in exchanges wash of xylene. The testis sections were then gradually rehydrated using decreasing ethanol concentrations (100, 95, 90, 80, and 70%) followed by PBS (pH = 7.4). After digestion with proteinase K (15 μg/mL, Cat. No. 539480, Lot. No. D00148754, Millipore, USA), paraffin-embedded tissue sections were labeled with a TUNEL reaction mixture, which contained terminal deoxynucleotidyl transferase incorporated with fluorescein. And 1 μg/mL DAPI (Sigma, USA) to used to reveal nuclear DNA. After staining, images were obtained with a fluorescent microscope (NIKON TS2, Japan)."}, "RNA polymerase II": {"tested_on": "RNA polymerase II", "experiment": "RNA polymerase II protein level in testes and liver (western blot)", "conditions": "0.5–1 mg/kg, 15 days", "method": "as §1\nCells were washed twice with ice-cold PBS (137 mM NaCl, 2.7 mM KCl, 10 mM Na2HPO4, and 1.8 mM KH2PO4, pH 7.4) and lysed in SDS sample buffer. Cell lysates, containing 20 μg of protein, were separated with SDS-PAGE (8%) and transferred to polyvinylidene difluoride membranes. After blocking in 5% non-fat milk in tris-buffered saline containing 0.1% Tween-20 (pH = 7.6), membranes were incubated with the appropriate primary antibodies at 4°C overnight. The primary antibodies γ-H2AX (Cat. No: 2577, Lot. No: 11, CST, USA) and Pol II (Cat. No: 05-623, Lot. No: 2397109, Millipore, USA) diluted 1:1000 in 5% bovine serum albumin (BSA, Cat. No. B2064-50G, Sigma, USA). Then the membranes were exposed to secondary antibodies (1:10,000, Cat. No.111-035-003, 115-035-003, Jackson ImmunoResearch Laboratories, USA) in 5% non-fat milk for 1 h at room temperature. Immunoreactive proteins were visualized using an enhanced chemiluminescent system (Cat. No. WBKLS0500, Millipore, Shanghai, China)."}, "mice testes": {"tested_on": "mice testes", "experiment": "Testicular toxicity comparison between triptolide and LLDT-8 (15 days by gavage, H&E)", "conditions": "0.5 mg/kg by gavage for 15 days", "method": "For toxicity experiments, mice (n = 3 for each group) were treated with tritpilide (0.125, 0.25, 0.5mg/kg), LLDT-8 (0.125, 0.25, 0.5mg/kg) consecutively administered by gavage for 15 days. The control group received saline. Mice were sacrificed on the 15th day post-administration and blood, liver, kidney, spleen, testis and epididymis were collected. The main lobe of liver, kidney, spleen and epididymis were fixed in 10% neutral buffered formalin for histological examination, the left testicle was fixed in Davidson’s buffer for 16 hours followed by 10% neutral buffered formalin. Tissue sections were stained with hematoxylin and eosin (H&E). Remaining tissues were stored at -80 °C for RNA and protein extraction.\nSupplementary Figure S1 Comparison of testicular toxicity between triptolide(TL) and LLDT-8. Mice (n=3) were weighted before sacrificed on the 15th day post-administration of triptolide, LLDT-8 or saline. The testes were collected and weighted. […] (G-H) Comparison of epididymis weight between triptolide and LLDT-8. Significant difference was determined by one-way Anova, mean ± SD. * p<0.05, *** p<0.001 vs Saline group. # p<0.05, ## p<0.01, ### p<0.001 vs T8 group at the same dosage."}, "[1]": {"conditions": "after LLDT-8 treatment, 15 days"}}, "note": "“Also recorded” adds a separate entry of the source."}
{"smiles": "CC(C)[C@]12O[C@H]1[C@@H]1O[C@]13[C@]1(O[C@H]1C[C@@]1(O)C4=C(CC[C@]31C)C(=O)OC4)[C@@H]2O", "note": "[LLDT-8, (5R)-5-hydroxytriptolide]", "values": [{"measurement": "epididymis weight", "setting": "WT and KO mice; 0.5–1 mg/kg by gavage 15 days", "value": "not changed"}, {"measurement": "testes weight", "setting": "WT and KO mice; 0.5–1 mg/kg by gavage 15 days", "value": "dose-dependently reduced"}, {"measurement": "testis histology (H&E) in KO mice compared to WT mice", "setting": "WT and KO mice; 0.5–1 mg/kg by gavage 15 days", "value": "reduced germinal cell layers; also recorded: severe vacuolar degeneration; also recorded: absence of spermatids development"}, {"measurement": "body weight", "setting": "WT and KO mice; 0.5–1 mg/kg by gavage 15 days, WT and KO mice", "value": "did not alter"}, {"measurement": "hematology and spleen in KO mice", "setting": "WT and KO mice; 15 days by gavage", "value": "induced hematological change and enlarged spleen"}, {"measurement": "liver injury and kidney damage", "setting": "WT and KO mice; 15 days by gavage, WT and KO mice", "value": "did not cause liver injury and kidney damage"}, {"measurement": "TUNEL-positive foci in testes of WT mice vs WT mice with saline", "setting": "WT and KO mice; [1]", "value": "apparently increased"}, {"measurement": "number of TUNEL positive foci in testis, KO mice vs WT mice", "setting": "WT and KO mice; [1]", "value": "much higher"}, {"measurement": "Pol II protein in the testes of KO mice", "setting": "RNA polymerase II", "value": "decreased"}, {"measurement": "Pol II protein level in the livers of KO mice", "setting": "RNA polymerase II", "value": "did not change"}, {"measurement": "expression of Pol II in the testes and liver of WT mice", "setting": "RNA polymerase II", "value": "did not change significantly"}, {"measurement": "testis morphology (H&E)", "setting": "mice testes", "value": "did not obviously alter the normal morphology of testes"}]}
